A short description of series [1]: Extraction of phenol from 1% aqueous solution with high boiling solvents alone and with TOPO (Example 3, Table III). It counts as physicochemical. The settings on record: 24° C., 10 minutes. The protocol:
A number of high boiling solvents, which would allow recovery of the extracted phenol without the necessity of distilling the solvent, were evaluted and the distribution coefficient calculated for the solvent alone and containing 133 g/l of TOPO. The aqueous solution extracted contained 1% phenol, which was contacted with the solvent or solvent plus TOPO for 10 minutes at 24° C.

The nature of series [2]: Water solubility of the solvents.
Series [3] can be described thus: Concentration of TOPO obtainable in the extraction solution. It counts as physicochemical. The text has this:
It is advantageous in solvent extraction to maximize the loading of the extracted compound in the organic phase. This also permits a higher ratio of aqueous phase to organic phase (A/O) in the extraction process, that is, a greater volume of aqueous solution treated per volume of organic extractant. It is therefore desirable to maximize the concentration of phosphine oxide in the extraction solution. With TOPO, solutions containing in excess of 30% by weight are readily obtained.

Setting [4] is: solvent + TOPO 133 g/l (head: TOPA), A/O = 0.5.
[5] abbreviates: solvent + TOPO 133 g/l, A/O = 1.

Regarding `O=C(c1ccccc1)c1ccccc1` [Benzophenone], the “C aq. Final (phenol)” value is reported as 37 ppm in series [1] (setting [4]) and 85 ppm in series [1] (setting [5]).

For `CC(C)CC(=O)CC(C)C` [DIBK, diisobutylketone, reference compound], the “C aq. Final (phenol)” value in series [1] (setting [4]) is 26 ppm; in series [1] (setting [5]) it was 60 ppm; in series [1] (solvent alone, A/O = 1) it was 285 ppm.

Diisopropyl naphthalene: the “C aq. Final (phenol)” value in series [1] (setting [4]) is 18 ppm; in series [1] (setting [5]), 46 ppm; in series [1] (solvent alone, A/O = 1), 5590 ppm. In addition, in series [2], the water solubility result is listed as “negligible water solubility”.

As for Isopropyl naphthalene, the “C aq. Final (phenol)” value in series [1] (setting [4]) was determined as 18 ppm; in series [1] (setting [5]), 45 ppm; in series [1] (solvent alone, A/O = 1) it was 4690 ppm. Also, the water solubility entry in series [2] was “negligible water solubility”.

Turning to `CCCCCCCCCCCCCO` [Tridecanol], the “C aq. Final (phenol)” value is reported as 128 ppm in series [1] (setting [4]); 515 ppm in series [1] (setting [5]); 531 ppm in series [1] (solvent alone, A/O = 1).

Take `CC(=O)CC(C)C` [Methyl isobutyl ketone, reference compound]: the “C aq. Final (phenol)” value was 24 ppm in series [1] (setting [4]); 43 ppm in series [1] (setting [5]); 130 ppm in series [1] (solvent alone, A/O = 1).

Turning to `c1ccc(Cc2ccccc2)cc1` [Diphenyl methane], the “C aq. Final (phenol)” value was determined as 21 ppm in series [1] (setting [4]) and 59 ppm in series [1] (setting [5]).

On to `c1ccc(Oc2ccccc2)cc1` [Diphenyl ether], for which the “C aq. Final (phenol)” value is on record as 23 ppm in series [1] (setting [4]); 55 ppm in series [1] (setting [5]); 3075 ppm in series [1] (solvent alone, A/O = 1).

For the compound `CCCCCCCCP(=O)(CCCCCCCC)CCCCCCCC` [TOPO, tri-n-octylphosphine oxide], in series [3], the “TOPO concentration of solutions readily obtained” value was above 30 % by weight.

On to `CC(C)OC(C)C` [Diisopropyl ether, diisopropyl ether, reference compound], for which the “C aq. Final (phenol)” value in series [1] (solvent alone, A/O = 1) was 419 ppm.

For the origin of these results see patent US4420643A, “Extraction of phenols from aqueous solutions” (priority 1982, dated 1983).
